The subject of data set [1] is murine norovirus (MNV) CR3. Nature of the data set: Study No. 2: efficacy against Murine Norovirus infection in mice. The class given is in vivo, BALB/c mice. Conditions: twice daily 300 mg/kg starting 2 days prior to infection, 10^4 PFU. How it is done:
Study No. 2 evaluated the efficacy of twice-daily dosing of Compound 1 at 150 mg/kg or 300 mg/kg, initiated prior to infection of mice with 10^4 pfu of MNV CR3. A control group of mice treated with vehicle was also included. The 150 mg/kg dose was started either 2 days (39 hours) prior to inoculation, 1 day (15 hours) prior to inoculation, or on the day of (3 hours prior to) inoculation; the 300 mg/kg dose was started 2 days (39 hours) prior to infection.
This study tested the ability of Compound 1 to protect mice from or reduce murine norovirus infection. Compound was delivered twice daily at indicated doses via oral gavage starting 2 days prior to inoculation, 1 day prior to inoculation or at time of inoculation. A control group of mice treated with vehicle only was also included. Mice were infected with 10^4 PFU of murine norovirus by pipetting virus into mouth 3 hours after the Day 0 dose. All samples were titered by plaque assay.
For both studies, compound was delivered via oral gavage at the indicated doses and times prior to infection. Mice were infected with murine norovirus CR3 by pipetting virus into mouth 3 hours after the first day 0 dose of Compound 1 was given. Following infection, compound was administered twice daily through day 3 post-infection.
The mice used were ˜20 gram, 8-12 week old female BALB/c mice in groups of 5. […]

The next data set has as its system RVFV. Nature of the data set: microbe, parasite or virus in culture. It is filed as cell-based. The conditions noted are these: Rift Valley fever virus, Vero 76.
In another data set the test system is VACV. The data set is described as follows: microbe, parasite or virus in culture. The class given is cell-based. The conditions noted are these: Orthopoxvirus vaccinia, HFF.
The nature of data set [2]: CytoTox-1 cytotoxicity assay in Huh 7 cells. The conditions noted are these: human, parallel to HCV assay. The class given is cell-based. How it is done:
Luciferase reporter (Replicon)/CytoTox-1 (Toxicity). Compounds were screened for anti-HCV activity using a luciferase (Luc) reporter gene endpoint in the HCV primary assay. The Luc reporter was used as an indirect measure of HCV replication as its activity is directly proportional to HCV RNA levels. Assessment of cytotoxicity is conducted in parallel. Drug stocks were prepared in DMSO unless otherwise specified and were diluted with tissue culture medium to the desired high-test concentration. For each assay, the compounds were then further diluted in tissue culture medium as required. After incubation, the cells were processed to derive, where applicable, EC50 and EC90 (compound concentration reducing replicon replication by 50% and 90% respectively). […] Anti-HCV activity was assessed with the replicon (genotype 1b or 2a) or HCVcc virus-derived Luc activity as readout; whereas the cytotoxic concentrations of drug reducing cell numbers was assessed by the CytoTox-1 cell proliferation assay according to manufacturer's protocol. […]
Luciferase reporter (Replicon)/CytoTox-1 (Toxicity). […] Anti-HCV activity was assessed with the replicon (genotype 1b or 2a) or HCVcc virus-derived Luc activity as readout; whereas the cytotoxic concentrations of drug reducing cell numbers was assessed by the CytoTox-1 cell proliferation assay (Promega, Madison, Wis.) according to manufacturer's protocol. […]

The nature of data set [3]: Parallel cytotoxicity assay in MEF cells. It is filed as cell-based. The conditions noted are these: mouse, parallel to MCMV assay. How it is done:
Every antiviral assay included a parallel cytotoxicity assay with the same cells used for each virus, the same cell number, the same drug concentrations, and the same incubation times to provide the same drug exposure. To ensure that the cytotoxicity of all compounds could be compared directly, a standard neutral red uptake cytotoxicity assay for all compounds in confluent HFF cells with a 7 d incubation period was performed.

For another data set, the system named is WNV. Nature of the data set: microbe, parasite or virus in culture. It is filed as cell-based. The conditions noted are these: West Nile virus, Vero 76, Vero76 cells.
The subject of a further data set is human norovirus. Nature of the data set: Efficacy of Compound 1 Against Human Norovirus (viral titer). The class given is cell-based. The conditions noted are these: cells pretreated with 25 μM compound for two hours; duplicate (FIGS. 4-6). As to the method: The efficacy of compound 1 for inhibiting norovirus was compared to DMSO (as a control), compound 2, and 2′-C-methylcytidine triphosphate (2′CmeC TP). Cells were pretreated with 25 μM of experimental compound for two hours. Virus inoculum was added for two hours, and unbound virus washed off and fresh media and fresh experimental compound was added.

The next data set has as its system MCMV. The data set is described as follows: Plaque-reduction assay for MCMV. The class given is cell-based. The conditions noted are these: MEF. How it is done:
Plaque-Reduction Assays for MCMV:
Mouse embryo fibroblast cells were prepared from mouse embryos using a procedure similar to that outlined above for HFF cells and suspended in tissue culture media as described above and seeded into plates and incubated. The medium was aspirated and the cell monolayers were infected with MCMV. The infected cells were then incubated at 37° C. for 1 h and the plates were rocked occasionally to ensure that the media covered the entire monolayer. Compounds were serially diluted in tissue maintenance cell culture media described above and the solutions were added to the infected monolayers. Infected monolayers were incubated for 7 d and then stained with Neutral Red solution as described above. Plaques were enumerated and EC50 values were interpolated from the experimental data by standard methods.
Mouse embryo fibroblast cells were prepared from mouse embryos using a procedure similar to that outlined above for HFF cells and suspended in tissue culture media as described above and seeded into 12 well plates and incubated at 37° C. for 24 h. The medium was aspirated and the cell monolayers were infected with the Smith strain of MCMV in a final volume of 0.2 mL in each of triplicate wells. The infected cells were then incubated at 37° C. for 1 h and the plates were rocked occasionally to ensure that the media covered the entire monolayer. […]
On the technique in general: Plaques are areas of infected cells; plaque reduction assays count them against a control.

Molecules are shown by their SMILES. Bounds are passed on as bounds.

As for `Cc1nc(N)c2c(C(N)=O)cn([C@@H]3O[C@H](CO)[C@@H](O)[C@H]3O)c2n1` [Compound 1, 4-amino-7-((2R,3R,4S,5R)-3,4-dihydroxy-5-(hydroxymethyl)tetrahydrofuran-2-yl)-2-methyl-7H-pyrrolo[2,3-d]pyrimidine-5-carboxamide], the “murine norovirus titer in tissue and feces” value in data set [1] is “significantly reduces murine norovirus titer both in tissue and feces”. Besides, the EC50 is greater than 100 µM in the data set on RVFV, 56.2 µM in the data set on VACV, greater than 100 µM with WNV and greater than 100 µM with MCMV. The CC50 was greater than 20 µM in data set [2] and greater than 100 µM in data set [3]. The viral titer result in the data set on human norovirus is reported as “increased less than one order of magnitude”.

In general, EC50 refers to the concentration giving half of the maximal effect. Low readings indicate higher potency in that assay, high ones lower potency in that assay. What is called CC50 is the concentration that lowers cell viability or growth by half.

The record behind these values is patent US9708359B2, “Pyrrolopyrimidine nucleosides and analogs thereof” (Chimerix, Inc., priority 2015, dated 2017).
